Like-named read-outs stand apart in the source and are kept apart here. Positions of bridges follow the written chain, without caps; N, C: chain ends. Non-standard residues stand in square brackets, D forms with d. Residues, ends and D or L forms follow the SMILES beside them. *: point of attachment. Phe(3,4,5-F3) = N[C@@H](Cc1cc(F)c(F)c(F)c1)C(=O)O; Ala(4-thiazolyl) = N[C@@H](Cc1cscn1)C(=O)O; Phe(4-Me) = Cc1ccc(C[C@H](N)C(=O)O)cc1; d(cisHyp) = O=C(O)[C@H]1C[C@@H](O)CN1; Bta = N[C@@H](Cc1csc2ccccc12)C(=O)O; Hyp = O=C(O)[C@@H]1C[C@@H](O)CN1; NMeF = CN[C@@H](Cc1ccccc1)C(=O)O; 2Pal = N[C@@H](Cc1ccccn1)C(=O)O; 3Pal = N[C@@H](Cc1cccnc1)C(=O)O; dHyp = O=C(O)[C@H]1C[C@H](O)CN1; AllylGly = C=CC[C@H](N)C(=O)O; NMeL = CN[C@@H](CC(C)C)C(=O)O; NMeNle = CCCC[C@H](NC)C(=O)O; dPip = O=C(O)[C@H]1CCCCN1; NMeA = CN[C@@H](C)C(=O)O; Dab = NCC[C@H](N)C(=O)O; Dap = NC[C@H](N)C(=O)O; OtBu = CC(C)(C)O*; Sar = CNCC(=O)O
Tests used:
[1] = target: T1, LK35.2-hPD-L1 cells / PE-labeled PD-1-Ig (Homo sapiens, UniProt Q9NZQ7); test: LK35.2-hPD-L1 cell binding high-content screening assay; assay type: cell-based
T1 construct: expressed in transfected cells; host or cells: LK35.2 mouse B cell line
Method in brief: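 Compound effect on PD-1/PD-L1 binding is measured by imaging cell-associated phycoerythrin signal. Human PD-1-Ig (PE on Ig tag, 1 nM final) is applied with compound to a murine B cell line overexpressing human PD-L1 for 1 h at 37 °C in serum-containing RPMI.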

Human PD-L1/PD-1 = target: T2, Human PD-L1/PD-1 (Homo sapiens, UniProt Q9NZQ7); test: HTRF PD-1-Ig/PD-L1-His binding assay (human PD-L1)
T2 construct: made in house; host or cells: HEK293T
Method in brief: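 Readout: time-resolved FRET between Eu cryptate-labeled anti-Ig (1 nM final) and APC-labeled anti-His (20 nM final) antibodies. These detect interaction of Fc-fused PD-1 with His-tagged human PD-L1 in dPBS containing 0.1% BSA and 0.05% Tween-20.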

[2] = cluster symbol, cell line of CBA not given (LK35.2-hPD-L1 or 293T-hPD-L1), read-out: CBA IC50 cluster
[3] = cluster symbol, read-out: HTRF IC50 cluster
[4] = cell binding assay, cell line not given, cluster symbol, read-out: CBA IC50 cluster

T2 sequence (Q9NZQ7 with tags, fused parts or gaps): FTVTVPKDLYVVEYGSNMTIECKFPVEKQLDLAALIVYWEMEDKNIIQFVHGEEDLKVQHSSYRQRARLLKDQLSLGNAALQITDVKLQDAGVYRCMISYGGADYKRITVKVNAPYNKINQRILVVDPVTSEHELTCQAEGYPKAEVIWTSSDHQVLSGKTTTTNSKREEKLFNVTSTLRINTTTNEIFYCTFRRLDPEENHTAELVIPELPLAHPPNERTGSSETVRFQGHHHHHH
T1 sequence (Q9NZQ7 19-290): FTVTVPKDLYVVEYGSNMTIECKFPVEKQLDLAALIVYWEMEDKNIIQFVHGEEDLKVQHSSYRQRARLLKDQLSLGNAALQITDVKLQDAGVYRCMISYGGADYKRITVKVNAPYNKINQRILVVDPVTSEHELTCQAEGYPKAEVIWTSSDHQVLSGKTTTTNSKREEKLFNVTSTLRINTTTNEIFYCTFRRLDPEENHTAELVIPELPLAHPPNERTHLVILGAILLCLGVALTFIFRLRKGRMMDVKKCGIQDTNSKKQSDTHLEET

SMILES	IC50 [1, 2]	IC50 (Human PD-L1/PD-1; [3])	IC50 ([1]; cell line of CBA not given (LK35.2-hPD-L1 or 293T-hPD-L1), read-out: CBA IC50 value)	IC50 (Human PD-L1/PD-1; read-out: HTRF IC50 value)	IC50 [1, 4]
CCCC[C@H]1C(=O)N(C)[C@@H](CCCC)C(=O)N[C@@H](CN)C(=O)N[C@H](C(=O)NCC(N)=O)CSCC(=O)N[C@@H](Cc2ccc(O)cc2)C(=O)N(C)[C@@H](C)C(=O)N[C@@H](CC(N)=O)C(=O)N2CCC[C@H]2C(=O)N[C@@H](CN)C(=O)N[C@@H](CC(C)C)C(=O)N2C[C@H](O)C[C@H]2C(=O)N[C@@H](Cc2c[nH]c3ccccc23)C(=O)N[C@@H](CCN)C(=O)N[C@@H](Cc2csc3ccccc23)C(=O)N1C [Example 1180] ({CH2CO}-Y[NMeA]NP[Dap]L[Hyp]W[Dab][Bta][NMeNle][NMeNle][Dap]CG-NH2; thioether N-14)	0.158 to 4.71 nM	0.385 to 6.74 nM	–	–	–
CCCC[C@H]1C(=O)N(C)CC(=O)N[C@@H](CC(=O)O)C(=O)N[C@@H](C(C)C)C(=O)N[C@@H](Cc2ccc(C)cc2)C(=O)N[C@@H](Cc2ccc(O)cc2)C(=O)N(C)CC(=O)N[C@@H](Cc2c[nH]c3ccccc23)C(=O)N[C@@H](Cc2ccc(O)cc2)C(=O)N[C@@H](CC(C)C)C(=O)N[C@H](C(=O)NCC(N)=O)CSCC(=O)N[C@@H](Cc2ccccc2)C(=O)N(C)[C@@H](Cc2ccccc2)C(=O)N1C [Example 3135] ({CH2CO}-F[NMeF][NMeNle][Sar]DV[Phe(4-Me)]Y[Sar]WYLCG-NH2; thioether N-13)	> 74.3 nM	> 30.5 nM	–	–	–
CCCC[C@H]1C(=O)N(C)[C@@H](CCCC)C(=O)N[C@@H](CCCNC(=N)N)C(=O)N[C@H](C(=O)NCC(N)=O)CSCC(=O)N[C@@H](Cc2ccccc2)C(=O)N(C)[C@@H](C)C(=O)N[C@@H](CC(N)=O)C(=O)N2CCC[C@H]2C(=O)N[C@@H](Cc2cnc[nH]2)C(=O)N[C@@H](CC(C)C)C(=O)N(C)CC(=O)N[C@@H](Cc2cscn2)C(=O)N[C@@H](CO)C(=O)N[C@@H](Cc2c[nH]c3ccccc23)C(=O)N1C [Example 1010] ({CH2CO}-F[NMeA]NPHL[Sar][Ala(4-thiazolyl)]SW[NMeNle][NMeNle]RCG-NH2; thioether N-14)	–	–	> 10000 nM	> 10000 nM	–
CCCC[C@H]1C(=O)N(C)CC(=O)N[C@@H](CC(=O)O)C(=O)N[C@@H](C(C)C)C(=O)N(C)[C@@H](Cc2ccccc2)C(=O)N[C@@H](Cc2ccc(O)cc2)C(=O)N(C)CC(=O)N[C@@H](Cc2c[nH]c3ccccc23)C(=O)N[C@@H](Cc2ccc(O)cc2)C(=O)N[C@@H](CC(C)C)C(=O)N[C@H](C(=O)NCC(N)=O)CSCC(=O)N[C@@H](Cc2ccc(O)cc2)C(=O)N(C)[C@@H](Cc2ccccc2)C(=O)N1C [Example 3065] (HELM PEPTIDE1{[O=C(C[*:3])[*:2]].Y.[meF].[CCCC[C@@H](C(=O)[*:2])N(C)[*:1]].[Sar].D.V.[meF].Y.[Sar].W.Y.L.C.G.[am]}$PEPTIDE1,PEPTIDE1,1:R3-14:R3$$$V2.0)	> 74.3 nM	> 30.5 nM	–	–	–
CCCC[C@H]1C(=O)N2C[C@H](O)C[C@@H]2C(=O)N[C@@H](CC(N)=O)C(=O)N[C@@H](C(C)C)C(=O)N(C)[C@@H](Cc2ccccc2)C(=O)N[C@@H](Cc2ccc(O)cc2)C(=O)N2CCCC[C@@H]2C(=O)N[C@@H](Cc2c[nH]c3ccccc23)C(=O)N[C@@H](Cc2ccc(O)cc2)C(=O)N[C@@H](CCCCN)C(=O)N[C@H](C(=O)NCC(N)=O)CSCC(=O)N[C@@H](Cc2cc(F)c(F)c(F)c2)C(=O)N(C)[C@@H](Cc2ccccc2)C(=O)N1C [Example 3589] ({CH2CO}-[Phe(3,4,5-F3)][NMeF][NMeNle][d(cisHyp)]NV[NMeF]Y[dPip]WYKCG-NH2; thioether N-13)	–	0.385 to 6.74 nM	–	–	0.158 to 4.71 nM
CCCC[C@H]1C(=O)N2C[C@@H](O)C[C@@H]2C(=O)N[C@@H](CC(N)=O)C(=O)N[C@@H](C(C)C)C(=O)N(C)[C@@H](Cc2ccccc2)C(=O)N[C@@H](Cc2ccc(O)cc2)C(=O)N2CCCC[C@@H]2C(=O)N[C@@H](Cc2c[nH]c3ccccc23)C(=O)N[C@@H](Cc2ccc(O)cc2)C(=O)N[C@@H](CCCCN)C(=O)N[C@H](C(=O)NCC(N)=O)CSCC(=O)N[C@@H](Cc2cc(F)c(F)c(F)c2)C(=O)N(C)[C@@H](Cc2ccccc2)C(=O)N1C [Example 3591] ({CH2CO}-[Phe(3,4,5-F3)][NMeF][NMeNle][dHyp]NV[NMeF]Y[dPip]WYKCG-NH2; thioether N-13)	–	0.385 to 6.74 nM	–	–	0.158 to 4.71 nM
CCCC[C@H]1C(=O)N(C)[C@@H](CCCC)C(=O)N[C@@H](CCCNC(=N)N)C(=O)N[C@H](C(=O)NCC(=O)O)CSCC(=O)N[C@@H](Cc2ccccc2)C(=O)N(C)[C@@H](C)C(=O)N[C@@H](CC(N)=O)C(=O)N2CCC[C@H]2C(=O)N[C@@H](Cc2cnc[nH]2)C(=O)N[C@@H](CC(C)C)C(=O)N(C)CC(=O)N[C@@H](Cc2c[nH]c3ccccc23)C(=O)N[C@@H](CO)C(=O)N[C@@H](Cc2c[nH]c3ccccc23)C(=O)N1C [Example 1076] ({CH2CO}-F[NMeA]NPHL[Sar]WSW[NMeNle][NMeNle]RCG-OH; thioether N-14)	4.78 to 72.9 nM	6.76 to 30.3 nM	–	–	–
CCCC[C@H]1C(=O)N(C)CC(=O)N[C@@H](CC(=O)OC(C)(C)C)C(=O)N[C@@H](C(C)C)C(=O)N(C)[C@@H](Cc2ccccc2)C(=O)N[C@@H](Cc2ccc(O)cc2)C(=O)N(C)CC(=O)N[C@@H](Cc2c[nH]c3ccccc23)C(=O)N[C@@H](Cc2ccc(O)cc2)C(=O)N[C@@H](CC(C)C)C(=O)N[C@H](C(=O)NCC(N)=O)CSCC(=O)N[C@@H](Cc2ccccc2)C(=O)N[C@@H](Cc2cccnc2)C(=O)N1C [Example 3604] ({CH2CO}-F[3Pal][NMeNle][Sar]D(OtBu)V[NMeF]Y[Sar]WYLCG-NH2; thioether N-13)	–	> 30.5 nM	–	–	> 74.3 nM

Second part, the molecule after the results:

IC50 [1, 2]	IC50 (Human PD-L1/PD-1; [3])	IC50 ([1]; cell line of CBA not given (LK35.2-hPD-L1 or 293T-hPD-L1), read-out: CBA IC50 value)	IC50 (Human PD-L1/PD-1; read-out: HTRF IC50 value)	IC50 [1, 4]	SMILES
–	> 30.5 nM	–	–	> 74.3 nM	C=CC[C@@H]1NC(=O)[C@H](Cc2c[nH]c3ccccc23)NC(=O)[C@@H]2CCCN2C(=O)[C@H](CC(C)C)NC(=O)[C@H](Cc2c[nH]cn2)NC(=O)[C@@H]2CCCN2C(=O)[C@H](CC(N)=O)NC(=O)[C@H](C)N(C)C(=O)[C@H](Cc2ccccn2)NC(=O)CSC[C@@H](C(=O)NCC(N)=O)NC(=O)[C@H](CC=C)NC(=O)[C@H](CCCC)N(C)C(=O)[C@H](CCCC)N(C)C(=O)[C@H](Cc2c[nH]c3ccccc23)NC1=O [Example 7023] ({CH2CO}-[2Pal][NMeA]NPHLPW[AllylGly]W[NMeNle][NMeNle][AllylGly]CG-NH2; thioether N-14)
–	0.385 to 6.74 nM	–	–	4.78 to 72.9 nM	CCCC[C@H]1C(=O)N(C)[C@@H](CC(C)C)C(=O)N[C@@H](CN)C(=O)N[C@H](C(=O)NCC(N)=O)CSCC(=O)N[C@@H](Cc2ccc(O)cc2)C(=O)N(C)[C@@H](C)C(=O)N[C@@H](CC(N)=O)C(=O)N2CCC[C@H]2C(=O)N[C@@H](Cc2c[nH]cn2)C(=O)N[C@@H](CCC(=O)O)C(=O)N2C[C@H](O)C[C@H]2C(=O)N[C@@H](Cc2c[nH]c3ccccc23)C(=O)N[C@@H](CCN)C(=O)N[C@@H](Cc2c[nH]c3ccccc23)C(=O)N1C [Example 5141] ({CH2CO}-Y[NMeA]NPHE[Hyp]W[Dab]W[NMeNle][NMeL][Dap]CG-NH2; thioether N-14)
–	0.385 to 6.74 nM	–	–	4.78 to 72.9 nM	CCCC[C@H]1C(=O)N(C)[C@@H](COc2cccc(C)c2)C(=O)N[C@@H](CC(C)C)C(=O)N[C@H](C(=O)NCC(N)=O)CSCC(=O)N[C@@H](Cc2ccc(O)cc2)C(=O)N(C)[C@@H](C)C(=O)N[C@@H](CC(N)=O)C(=O)N2CCC[C@H]2C(=O)N[C@@H](CN)C(=O)N[C@@H](CC(C)C)C(=O)N2C[C@H](O)C[C@H]2C(=O)N[C@@H](Cc2c[nH]c3ccccc23)C(=O)N[C@@H](CCN)C(=O)N[C@@H](Cc2c[nH]c3ccccc23)C(=O)N1C [Example 6029]
–	0.385 to 6.74 nM	–	–	0.158 to 4.71 nM	CCCC[C@H]1C(=O)N(C)[C@@H](CCCC)C(=O)N[C@@H](CCCNC(=N)N)C(=O)N[C@H](C(=O)NCC(=O)NCC(N)=O)CSCC(=O)N[C@@H](Cc2ccc(O)cc2)C(=O)N(C)[C@@H](C)C(=O)N[C@@H](CC(N)=O)C(=O)N2CCC[C@H]2C(=O)N[C@@H](Cc2cnc[nH]2)C(=O)N[C@@H](CC(C)C)C(=O)N2CCC[C@H]2C(=O)N[C@@H](Cc2c[nH]c3ccccc23)C(=O)N[C@@H](CO)C(=O)N[C@@H](Cc2c[nH]c3ccccc23)C(=O)N1C [Example 6018] ({CH2CO}-Y[NMeA]NPHLPWSW[NMeNle][NMeNle]RCGG-NH2; thioether N-14)
–	0.385 to 6.74 nM	–	–	0.158 to 4.71 nM	CCCC[C@H]1C(=O)N(C)[C@@H](CCCC)C(=O)N[C@@H](CCCNC(=N)N)C(=O)N[C@H](C(=O)NCC(N)=O)CSCC(=O)N[C@@H](Cc2ccc(O)cc2)C(=O)N(C)[C@@H](C)C(=O)N[C@@H](CC(N)=O)C(=O)N2CCC[C@H]2C(=O)N[C@@H](CN)C(=O)N[C@@H](CC(C)C)C(=O)N2C[C@H](O)C[C@H]2C(=O)N[C@@H](Cc2c[nH]c3ccccc23)C(=O)N[C@@H](C(C)C)C(=O)N[C@@H](Cc2c[nH]c3ccccc23)C(=O)N1C [Example 6032] ({CH2CO}-Y[NMeA]NP[Dap]L[Hyp]WVW[NMeNle][NMeNle]RCG-NH2; thioether N-14)
–	0.385 to 6.74 nM	–	–	0.158 to 4.71 nM	CCCC[C@H]1C(=O)N(C)[C@@H](CCCC)C(=O)N[C@@H](CC(C)C)C(=O)N[C@H](C(=O)NCC(N)=O)CSCC(=O)N[C@@H](Cc2ccc(O)cc2)C(=O)N(C)[C@@H](C)C(=O)N[C@@H](CC(=O)O)C(=O)N2CCC[C@H]2C(=O)N[C@@H](Cc2cnc[nH]2)C(=O)N[C@@H](CCC(=O)O)C(=O)N2C[C@H](O)C[C@H]2C(=O)N[C@@H](Cc2c[nH]c3ccccc23)C(=O)N[C@@H](CCN)C(=O)N[C@@H](Cc2c[nH]c3ccccc23)C(=O)N1C [Example 5066] ({CH2CO}-Y[NMeA]DPHE[Hyp]W[Dab]W[NMeNle][NMeNle]LCG-NH2; thioether N-14)

Source: patent US9850283B2, “Macrocyclic inhibitors of the PD-1/PD-L1 and CD80(B7-1)/PD-L1 protein/protein interactions” (BRISTOL-MYERS SQUIBB COMPANY, priority 2013, dated 2017)
